In ChEMBL document CHEMBL1138308, “Synthesis and antibacterial activity of potent heterocyclic oxazolidinones and the identification of RBx 8700” (2007):
≈ marks a conversion by molar mass, not a printed value.

System: Mycobacterium tuberculosis
Test: Antibacterial activity against multi drug resistant Mycobacterium tuberculosis
Type: functional

Work on `CC(=O)NC[C@H]1CN(c2ccc(N3CCN(c4ccc([N+](=O)[O-])s4)CC3)c(F)c2)C(=O)O1` yielded an MIC90 of 1 µg/mL (≈ 2.16 µM).
